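Test compounds were applied to cells in 96-well plates for 48 hours at 5 doses. Here, GI50 denotes the concentration required for 50% inhibition of growth.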 Activity calls are given as the source filed them. Cut-off read from the data, not from the text of the source: active = GI50 up to about 1.1 µM and inactive = higher.
What was measured:
Assay in all cases: DTP human tumour cell line panel, 48 h
UACC-257 = system: UACC-257
SK-MEL-5 = system: SK-MEL-5
PC-3 = system: PC-3
OVCAR-5 = system: OVCAR-5
UACC-62 = system: UACC-62
M14 = system: M14
U-251 = system: U-251
A549 = system: A549
HCT-116 = system: HCT-116
LOX IMVI = system: LOX IMVI
MOLT-4 = system: MOLT-4
COLO 205 = system: COLO 205
NCI/ADR-RES = system: NCI/ADR-RES
NCI-H226 = system: NCI-H226
HCT-15 = system: HCT-15
RXF 393 = system: RXF 393
CAKI-1 = system: CAKI-1
ACHN = system: ACHN
HT-29 = system: HT-29
HOP-92 = system: HOP-92

SMILES | GI50 (UACC-257) | GI50 (SK-MEL-5) | GI50 (PC-3) | GI50 (OVCAR-5) | GI50 (UACC-62) | GI50 (M14) | GI50 (U-251) | GI50 (A549) | GI50 (HCT-116) | GI50 (LOX IMVI) | GI50 (MOLT-4) | GI50 (COLO 205) | GI50 (NCI/ADR-RES) | GI50 (NCI-H226) | GI50 (HCT-15) [µM] | GI50 (RXF 393) | GI50 (CAKI-1) | GI50 (ACHN) | GI50 (HT-29) | GI50 (HOP-92)
COc1cc2c(cc1OC)C1(COc3cc(O)c(O)c(O)c3C1=O)C2 (stereo unspecified) | > 50 µM (inactive) | > 50 µM (inactive) | > 50 µM (inactive) | > 50 µM (inactive) | > 50 µM (inactive) | > 50 µM (inactive) | > 50 µM (inactive) | > 50 µM (inactive) | > 50 µM (inactive) | > 50 µM (inactive) | > 50 µM (inactive) | > 50 µM (inactive) | > 50 µM (inactive) | > 50 µM (inactive) | > 50 | > 50 µM (inactive) | > 50 µM (inactive) | > 50 µM (inactive) | > 50 µM (inactive) | –
C#CCN(Cc1ccc2nc(-c3ccccc3)c(Cl)nc2c1)c1ccc(F)cc1 | > 100 µM (inactive) | 23.1 µM (inactive) | > 100 µM (inactive) | > 100 µM (inactive) | > 100 µM (inactive) | > 100 µM (inactive) | > 100 µM (inactive) | > 100 µM (inactive) | > 100 µM (inactive) | > 100 µM (inactive) | 0.767 µM (active) | 51.3 µM (inactive) | > 100 µM (inactive) | – | 87.1 | – | > 100 µM (inactive) | 71.9 µM (inactive) | 61.9 µM (inactive) | 47 µM (inactive)
CC(C)C(=O)Cc1ccc2ccccc2n1 | > 100 µM (inactive) | > 100 µM (inactive) | 89.7 µM (inactive) | > 100 µM (inactive) | > 100 µM (inactive) | > 100 µM (inactive) | > 100 µM (inactive) | > 100 µM (inactive) | 95.5 µM (inactive) | > 100 µM (inactive) | – | > 100 µM (inactive) | > 100 µM (inactive) | > 100 µM (inactive) | > 100 | > 100 µM (inactive) | > 100 µM (inactive) | > 100 µM (inactive) | > 100 µM (inactive) | > 100 µM (inactive)
O=c1c2cc(I)ccc2nc(-c2cccs2)n1O | 59 µM (inactive) | 45.1 µM (inactive) | 52.1 µM (inactive) | 44.8 µM (inactive) | 90.6 µM (inactive) | 64.3 µM (inactive) | 30.1 µM (inactive) | 22.6 µM (inactive) | 38.8 µM (inactive) | 28.1 µM (inactive) | 34.8 µM (inactive) | > 100 µM (inactive) | 41.1 µM (inactive) | 52.6 µM (inactive) | 33.9 | > 100 µM (inactive) | 28.8 µM (inactive) | 46.3 µM (inactive) | 48.6 µM (inactive) | 28.1 µM (inactive)
CC(O)(P(=O)(O)O)P(=O)(O)OCC(O)CN1CCOCC1 (stereo unspecified) | > 100 µM (inactive) | – | > 100 µM (inactive) | > 100 µM (inactive) | > 100 µM (inactive) | > 100 µM (inactive) | > 100 µM (inactive) | > 100 µM (inactive) | > 100 µM (inactive) | > 100 µM (inactive) | > 100 µM (inactive) | > 100 µM (inactive) | > 100 µM (inactive) | > 100 µM (inactive) | > 100 | > 100 µM (inactive) | > 100 µM (inactive) | > 100 µM (inactive) | > 100 µM (inactive) | > 100 µM (inactive)
CC(C)C1=C(O)C(=O)C2=C(C1=O)C(OC=O)C(O)C1C(C)(C)CCCC21C (stereo unspecified) | 9.1 µM (inactive) | 3.7 µM (inactive) | 11.2 µM (inactive) | 15.8 µM (inactive) | 6.19 µM (inactive) | 11.9 µM (inactive) | 4.28 µM (inactive) | 14.7 µM (inactive) | 7.73 µM (inactive) | 3.33 µM (inactive) | 2.25 µM (inactive) | 3.54 µM (inactive) | – | 5.08 µM (inactive) | 4.04 | 6.82 µM (inactive) | 4.04 µM (inactive) | 3.87 µM (inactive) | 11.2 µM (inactive) | 7.46 µM (inactive)
NCC(Cl)C(O)c1c[nH]c(N)n1 (stereo unspecified) | 3.05 µM (inactive) | 7.33 µM (inactive) | – | 2.01 µM (inactive) | 3.01 µM (inactive) | – | 1.03 µM (active) | 0.136 µM (active) | 0.392 µM (active) | 1.24 µM (inactive) | 0.53 µM (active) | 0.306 µM (active) | 0.596 µM (active) | 2.15 µM (inactive) | 3.48 | 1.19 µM (inactive) | 0.269 µM (active) | – | 0.454 µM (active) | 5.46 µM (inactive)
O=C(NC(Cc1ccc(Cl)cc1)C(=O)O)c1ccc(I)cc1 (stereo unspecified) | > 100 µM (inactive) | > 100 µM (inactive) | – | > 100 µM (inactive) | 64.9 µM (inactive) | – | > 100 µM (inactive) | > 100 µM (inactive) | > 100 µM (inactive) | > 100 µM (inactive) | > 75.9 µM (inactive) | > 100 µM (inactive) | > 100 µM (inactive) | > 100 µM (inactive) | > 100 | > 100 µM (inactive) | > 100 µM (inactive) | – | > 100 µM (inactive) | > 83.4 µM (inactive)
COc1ccc(-c2cs/c(=N\c3ccccc3)n2CCCN(C)C)cc1 | 18.9 µM (inactive) | – | 12.6 µM (inactive) | 14.8 µM (inactive) | 15.1 µM (inactive) | 10.7 µM (inactive) | 43.4 µM (inactive) | 17.1 µM (inactive) | – | – | 16.5 µM (inactive) | – | 15.2 µM (inactive) | 18.2 µM (inactive) | 24.8 | 12.2 µM (inactive) | 71.9 µM (inactive) | 21.8 µM (inactive) | – | 26.3 µM (inactive)
CN(C)CCCNC(=S)S | > 100 µM (inactive) | > 100 µM (inactive) | > 100 µM (inactive) | > 100 µM (inactive) | – | > 100 µM (inactive) | > 100 µM (inactive) | > 100 µM (inactive) | > 100 µM (inactive) | > 100 µM (inactive) | > 100 µM (inactive) | > 100 µM (inactive) | > 100 µM (inactive) | > 100 µM (inactive) | > 100 | > 100 µM (inactive) | > 100 µM (inactive) | > 100 µM (inactive) | > 100 µM (inactive) | > 100 µM (inactive)
COc1cccc(C2c3cc4c(cc3OC(N3CCOCC3)C2C)OCO4)c1 (stereo unspecified) | 14.8 µM (inactive) | 4.37 µM (inactive) | 5.53 µM (inactive) | 27 µM (inactive) | 8.47 µM (inactive) | 7.05 µM (inactive) | – | 12.9 µM (inactive) | 13.2 µM (inactive) | 5.28 µM (inactive) | 2.7 µM (inactive) | 11.3 µM (inactive) | 13.7 µM (inactive) | 15.6 µM (inactive) | 6.31 | – | – | 14.7 µM (inactive) | 4.68 µM (inactive) | 25.5 µM (inactive)
COc1cc(C2c3cc4c(cc3[C@@H](Nc3cccc(CO)c3)C3COC(=O)[C@H]23)OCO4)cc(OC)c1O (stereo partly specified) | 0.173 µM (active) | 0.56 µM (active) | – | 2.04 µM (inactive) | 0.307 µM (active) | – | 0.516 µM (active) | < 0.0281 µM (active) | 0.624 µM (active) | 0.438 µM (active) | 0.0448 µM (active) | 1.54 µM (inactive) | 1.34 µM (inactive) | 0.308 µM (active) | 0.875 | 1.27 µM (inactive) | 0.205 µM (active) | – | 0.984 µM (active) | 0.569 µM (active)
Nc1ncnc2c1ncn2C1C(O)C=C(CO)C1O (stereo unspecified) | – | > 625 µM (inactive) | – | – | > 625 µM (inactive) | – | – | > 625 µM (inactive) | > 625 µM (inactive) | > 625 µM (inactive) | – | > 625 µM (inactive) | > 625 µM (inactive) | > 625 µM (inactive) | > 625 | – | > 625 µM (inactive) | – | > 625 µM (inactive) | 568 µM (inactive)
CCCCCCCc1cscc1-c1cscc1Br | 31.6 µM (inactive) | 28.4 µM (inactive) | 33 µM (inactive) | 39.3 µM (inactive) | 70 µM (inactive) | 31.9 µM (inactive) | 39.3 µM (inactive) | 27.2 µM (inactive) | 32.7 µM (inactive) | 20.1 µM (inactive) | 20.2 µM (inactive) | 18 µM (inactive) | 90.8 µM (inactive) | 65.2 µM (inactive) | 36.1 | 27 µM (inactive) | 22.5 µM (inactive) | 33.5 µM (inactive) | – | –
COC(=O)N[C@H](C(=O)NC(OCc1ccccc1)C1COC(C)(C)O1)C(C)O[Si](C)(C)C(C)(C)C (stereo partly specified) | 59.4 µM (inactive) | 26.7 µM (inactive) | 32.4 µM (inactive) | > 100 µM (inactive) | – | > 100 µM (inactive) | 88.7 µM (inactive) | > 100 µM (inactive) | > 100 µM (inactive) | – | 31.4 µM (inactive) | > 100 µM (inactive) | > 100 µM (inactive) | – | 58.3 | > 100 µM (inactive) | 96.2 µM (inactive) | > 100 µM (inactive) | 24.3 µM (inactive) | 70 µM (inactive)
OC1(c2ccc(Cl)cc2)c2ccc3ccccc3c2C2=N[C@H]3CCCC[C@@H]3N21 (stereo partly specified) | – | 37 µM (inactive) | 6.32 µM (inactive) | 3.76 µM (inactive) | 7.93 µM (inactive) | 2.52 µM (inactive) | 5.82 µM (inactive) | 10 µM (inactive) | 3.27 µM (inactive) | 3.24 µM (inactive) | 8.99 µM (inactive) | 5.81 µM (inactive) | 1.63 µM (inactive) | 43.8 µM (inactive) | 4.75 | 3.5 µM (inactive) | 12.2 µM (inactive) | 18.3 µM (inactive) | – | 16.9 µM (inactive)

Reference: ChEMBL document CHEMBL1201862, “PubChem BioAssay data set” (2004)
